Results: US12570603B2, “FABP4/5 inhibitors, methods of use and methods of making” (Novius Therapeutics, LLC, priority 2021, dated 2026)

Experiments:
PPARδ = test: Transactivation assay, PPRE luciferase reporter in COS-7 cells; type: cell-based; conditions: 5 μM, COS7 cells, FIG. 36A
Method: COS-7 were cultured in 6-well plates and co-transfected with either a luciferase reporter driven by 3 copies of a PPRE and expression vector for either PPARδ, PPARα or PPARγ together with a vector harboring cDNA for β-galactosidase, serving as a transfection control. To test whether FABP4 or FABP5 mediate activation of their cognate receptors PPARγ and PPARδ, respectively, cells were also co-transfected with a plasmid harboring sequence of either FABP4 or FABP5. 18 h post-transfection, cells were placed in a serum-free medium and treated with agonist/compound. 18 h. later, cells were lysed, luciferase activity was assayed (Promega, WI, USA) and corrected for transfection efficiency by the activity of β-galactosidase.
COS-7 were cultured in 6-well plates and co-transfected with either a luciferase reporter driven by 3 copies of a PPRE and expression vector for either PPARδ, PPARα or PPARγ together with a vector harboring cDNA for β-galactosidase, serving as a transfection control. 18 h. post-transfection, cells were placed in a serum-free medium and treated with agonist/compound. 18 h. later, cells were lysed, luciferase activity was assayed (Promega, WI, USA) and corrected for transfection efficiency by the activity of β-galactosidase.

[1] = test system: NPG human neuroblastoma cells; test: Neuroblastoma proliferation assay with or without all-trans retinoic acid; type: cell-based; conditions: for proliferation of neuroblastoma cells in combination with atRA: combined with atRA; for proliferation of neuroblastoma cells: compound alone, 4 days
Method: (§1) COS-7, MDA-MB-231, HepG2, LX-2, 3T3-L1, NPG, and MCF7 were cultured in Dulbecco's modified Eagle's medium (DMEM) supplemented with 10% fetal bovine serum (Invitrogen Life Sciences, Carlsbad, CA). MDA-MB-157 and MB-549 cells were cultured in L-Glutamine containing RPMI medium supplemented with 10% fetal calf serum (Invitrogen Life Sciences, Carlsbad, CA). For proliferation assays, 2000 cells were plated in each well of 96-well plate. The next day cells were treated with compounds and incubated in Incucyte for 4 days. Images taken every 4 hours for the duration of the time were analyzed to calculate percentage of confluency in response to the treatments.
Activation of PPARβ by atRA shifts the signaling of this vitamin from its cognate receptor RAR that is known to have anti-carcinogenic activities in multiple cancers to the pro-carcinogenic PPARβ. […] Accordingly, NB, human NPG cells were used to test the effect of FABP5 inhibitors on cells' proliferation in combination with atRA. Cells were treated with either B104 or B108 in the presence or absence of atRA.

FABP5 = target: T1, FABP5 (Homo sapiens, UniProt Q01469); test: FABP binding assay by fluorescence titration (ANS competition); conditions: fluorescence competition with ANS; read-out: FABP5 binding
T1 construct: made in house
Method: (§2) This example illustrates a binding assay study used to determine the binding affinity of the various inhibitor compounds disclosed herein with the various FABPs: FABP3, FABP4, FABP5 and FABP7.
(§3) Binding assays for FABP3, FABP4, FABP5 and FABP7 were carried out by fluorescence titrations. FABPs were bacterially expressed and purified and the equilibrium dissociation constants (Kd) that characterize their interactions with different compounds were measured by fluorescence competition assays. The method entails two steps as described in e.g., Lin, Q. et al., “Ligand selectivity of the peroxisome proliferator-activated receptor alpha,” Biochemistry 38, 185-190, doi:10.1021/bi9816094 bi9816094 [pii](1999). In the first step, Kd for the association of the protein with the fluorescent fatty acid probe ANS was measured. Protein ([…]) was titrated with ANS from a concentrated solution in DMSO. Ligand binding was monitored by following the increase in the fluorescence of the ligand upon binding to the protein, and Kd for the association of ANS with the each FABP was computed from titration curves as described in e.g., Norris, A. W. & Li, E., “Fluorometric titration of the CRABPs,” Methods Mol Biol 89, 123-139 (1998)). Kds for binding of non-fluorescent ligands were then measured by monitoring their ability to displace ANS in the binding pocket of the protein. Each FABP was pre-complexed with ANS at 1:1 molar ratio and titrated with the different compounds whose binding was reflected by a decrease in probe fluorescence. Kds were extracted from the EC50 of the competition curve and the measured Kd for ANS.
(§4) Binding assays for FABP3, FABP4, FABP5 and FABP7 were carried out by fluorescence titrations as described in Example 16.

FABP4 = target: T2, FABP4 (Homo sapiens, UniProt P15090); test: as above; conditions: fluorescence competition with ANS; read-out: FABP4 binding
T2 construct: made in house
Method: as §2, §3, §4

HepG2 cells = test: Lipid uptake assay, oleic acid, Nile Red (steatosis model); type: cell-based, human; conditions: OA 1 mM 24 h, compound 4 h before
Method: 2) Hepg2 cells: 5000 cells were plated in 96-well plate. The next day cells were treated with tested compounds for 4 hours and then treated with 1 mM oleic acid for additional 24 hours. Cells were then stained with Nile Red and Dapi and lipid content was quantified using Cytation5 (Agilent).
2) Hepg2 cells: 5000 cells were plated in 96-well plate. The next day cells were treated with tested compounds for 4 hours and then treated with 1 mM oleic acid for additional 24 hours. Cells were then stained with Nile Red and Dapi and lipid content was quantified.

MDA-MB-157 = test: Proliferation assay (Incucyte confluency, 4 days); type: cell-based, human; conditions: MDA-MB-157, 4 days
Method: as §1
(§5) The TNBC line MB-231 was used to calculate the efficacy of compounds B104, B106, B110, B116, and B118 in inhibiting proliferation of the cancer cells. Cells were treated with serial dilution of the compounds or the known FABP5/7 inhibitor SBF-I26 and proliferation was measured in Incucyte by calculating percentage of confluency every 4 hours over 4 days. […] The EC50 for each compound was calculated by fitting the percentage of inhibition vs. the logarithmic transformation of the used concentrations (FIG. 37B and FIG. 37D). Additionally, the effect of B116 and B118 was also tested on proliferation of the human TNBC lines MDA-MB-157 (FIG. 37E) and MB-549 (FIG. 37F).

MB-549 = test: Proliferation assay (Incucyte confluency, 4 days); type: cell-based, human; conditions: MB-549, 4 days
Method: as §1, §5

MB-231 cells = test: Proliferation assay (Incucyte confluency, 4 days); type: cell-based; conditions: MB-231, serial dilution
Method: as §1, §5

T2 sequence (P15090 whole entry, species assumed): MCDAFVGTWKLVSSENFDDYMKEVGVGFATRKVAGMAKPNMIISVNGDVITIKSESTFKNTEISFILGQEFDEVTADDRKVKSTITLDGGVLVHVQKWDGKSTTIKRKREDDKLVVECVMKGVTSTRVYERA
T1 sequence (Q01469 whole entry, species assumed): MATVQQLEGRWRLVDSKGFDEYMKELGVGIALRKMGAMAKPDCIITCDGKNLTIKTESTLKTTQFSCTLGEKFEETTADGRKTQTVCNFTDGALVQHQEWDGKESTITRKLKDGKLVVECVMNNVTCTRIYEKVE

Row | Kd (FABP5) [µM] | Kd (FABP4) [µM] | SMILES | activation of transcription by PPARδ (PPARδ) | proliferation of neuroblastoma cells in combination with atRA [1] | proliferation of neuroblastoma cells [1] | uptake of lipid into hepatic cells (Nile Red) (HepG2 cells) | proliferation (MDA-MB-157) | proliferation (MB-549) | suppression of growth of TNBC cells compared with SBF-I26 (MB-231 cells)
1 | 0.003 | 0.09 | CC(C)Oc1cc(NC(=O)CC(C)(C)CC(=O)O)c(Cl)cc1Cl [Compound B116, 5-((2,4-dichloro-5-isopropoxyphenyl)amino)-3,3-dimethyl-5-oxopentanoic acid] | do not Activate Transcription | sensitize cells to all-trans retinoic acid treatments | inhibit growth of neuroblastoma | markedly inhibited | inhibited proliferation of both TNBC lines | inhibited proliferation of both TNBC lines | Suppress Growth of TNBC Cells More Effectively than the Commercially Available Inhibitor SBF-I26
2 | 0.002 | 0.078 | CC(C)Oc1cc(NC(=O)CC2(CC(=O)O)CCCC2)c(Cl)cc1Cl [Compound B118, 2-(1-(2-((2,4-dichloro-5-isopropoxyphenyl)amino)-2-oxoethyl)cyclopentyl)acetic acid] | do not Activate Transcription | sensitize cells to all-trans retinoic acid treatments | inhibit growth of neuroblastoma | markedly inhibited | inhibited proliferation of both TNBC lines | inhibited proliferation of both TNBC lines | Suppress Growth of TNBC Cells More Effectively than the Commercially Available Inhibitor SBF-I26
